{"source": "patent US20150366787A1", "about": "“SESBANIA ACULEATA EXTRACTS AND METHODS OF USE” (AVON PRODUCTS, INC., priority 2013, published 2015)", "test_system": "dorsal forearm skin", "experiment": "In vivo biopsy (dorsal forearm, histology)", "set-up": "species or system human", "conditions": "3 weeks semi-occlusion patch, retinol 0.05%", "experimental": "Healthy female Caucasian subjects aged 30-65, with skin type II or III and mild to moderate photo damage, were treated on the dorsal forearm for 3 weeks (3 consecutive rounds of 5×24 hour) under semi-occlusion patches. Test articles including active ingredients, vehicle controls, and retinol were applied in a randomized allocation on 6 sites on each forearm. The application dose was 2 mg/cm^2. After 3 week treatment, a 2 mm punch biopsy was obtained from each treatment site and fixed in 10% buffered formalin. Tissue samples then embedded in paraffin, sectioned (5 μm thickness), and stained for skin markers after re-hydration. […] Retinol at a active concentration of 0.05% was used a positive control. Retinol use at a 0.05% active concentration in the semi-occlusion patch vehicle formulation yielded a visual score of approximately 0.56 out of a 4 point scale in HE staining (measuring hematoxylin and eosin staining, an indication of viable epidermal thickness and health) with 63.6% of the subjects showing an improvement; a visual score of 0.6 out of a 4 point scale in M-TC staining (Masson's trichrome staining, assessing total mature fiber-forming collagen in the dermis—mainly Collagen I, […] and Collagen V) with 51.6% of the subjects showing an improvement; a visual score of 0.52 out of a 4 point scale for pro-Col (measuring new synthesis of Collagen I by skin fibroblasts in the dermis) with 51.6% of the subjects showing an improvement; and a visual score of 0.57 out of a 4 point scale for HA (measuring level of hyaluronic acid in both dermis and epidermis) with 50% of the subjects showing an improvement.", "key": {"[1]": {"conditions": "out of a 4 point scale, extract 0.33%"}}}
{"smiles": "CC1=C(/C=C/C(C)=C/C=C/C(C)=C/CO)C(C)(C)CCC1", "note": "[Retinol]", "values": [{"measurement": "subjects showing an improvement, HA", "setting": "extract 0.33%", "result": 50, "unit": "%"}, {"measurement": "subjects showing an improvement, HE staining", "setting": "extract 0.33%", "result": 63.6, "unit": "%"}, {"measurement": "subjects showing an improvement, M-TC staining", "setting": "extract 0.33%", "result": 51.6, "unit": "%"}, {"measurement": "subjects showing an improvement, pro-Col", "setting": "extract 0.33%", "result": 51.6, "unit": "%"}, {"measurement": "visual score in HE staining (viable epidermal thickness and health)", "setting": "out of a 4 point scale, 2 mg/cm^2, extract 0.33% (Example 1B ethanol/water extract)", "result": "approximately 0.56"}, {"measurement": "visual score for HA (hyaluronic acid in dermis and epidermis)", "setting": "[1]", "result": 0.57}, {"measurement": "visual score for pro-Col (new synthesis of Collagen I)", "setting": "[1]", "result": 0.52}, {"measurement": "visual score in M-TC staining (total mature fiber-forming collagen in the dermis)", "setting": "[1]", "result": 0.6}]}
